Assay results reported in patent publication US4146719A, “Piperazinyl derivatives of quinoline carboxylic acids” (priority 1977, dated 1979).
≈ marks a conversion by molar mass, not a printed value. Entries after “also recorded” stand apart in the source; their conditions may differ. Like-named read-outs stand apart in the source and are kept apart here.

What was measured:
[1] = system: Bacillus subtilis PCI 219; test: Antibacterial activity in vitro, M.I.C., agar dilution streak method; format: cell-based; settings: Bacillus subtilis, PCI219; Gram +; read-out: M.I.C.
[2] = system: Staphylococcus aureus 209P; test: as above; format: cell-based; settings: Staphylococcus aureus, 209P; Gram +; read-out: M.I.C.
[3] = system: Streptococcus pyogenes IID 692; test: as above; format: cell-based; settings: Streptococcus pyogenes, IID692; Gram +; read-out: M.I.C.
Str. pyogenes S-8 = test: as above; format: cell-based, Streptococcus pyogenes; settings: Streptococcus pyogenes, S8; Gram +; read-out: M.I.C.
[4] = system: Diplococcus pneumoniae IID 552; test: as above; format: cell-based; settings: Streptococcus pneumoniae, IID552; Gram +; read-out: M.I.C.
[5] = system: Corynebacterium pyogenes IID 548; test: as above; format: cell-based; settings: Corynebacterium pyogenes, IID548; Gram +
[6] = system: Mycobacterium phlei IFO 3142; test: as above; format: cell-based; settings: Mycolicibacterium phlei, IFO3142; Gram +; read-out: M.I.C.
My. smegmatis IFO 3083 = test: as above; format: cell-based; settings: Mycolicibacterium smegmatis, IFO3083; Gram +; read-out: M.I.C.
Escherichia coli NIHJ = test: as above; format: cell-based; settings: Escherichia coli; Gram -; read-out: M.I.C.
E. coli ATCC 10536 = test: as above; format: cell-based, Escherichia coli; settings: Escherichia coli, ATCC10536; Gram -; read-out: M.I.C.
[7] = system: Proteus vulgaris IFO 3167; test: as above; format: cell-based; settings: Proteus vulgaris, IFO3167; Gram -; read-out: M.I.C.
Pr. vulgaris XK Denken = test: as above; format: cell-based, Proteus vulgaris; settings: Proteus vulgaris; Gram -; read-out: M.I.C.
[8] = system: Klebsiella pneumoniae IFO 3512; test: as above; format: cell-based; settings: Klebsiella pneumoniae, IFO3512; Gram -; read-out: M.I.C.
[9] = system: Neisseria perflava IID 856; test: as above; format: cell-based; settings: Neisseria perflava, IID856; Gram -; read-out: M.I.C.
[10] = system: Pseudomonas aeruginosa V-1; test: as above; format: cell-based; settings: Pseudomonas aeruginosa, V1; Gram -; read-out: M.I.C.
Ps. aeruginosa IFO 12689 = test: as above; format: cell-based, Pseudomonas aeruginosa; settings: Pseudomonas aeruginosa, IFO12689; Gram -; read-out: M.I.C.
Ps. aeruginosa IID 1130 = test: as above; format: cell-based, Pseudomonas aeruginosa; settings: Pseudomonas aeruginosa, IID1130; Gram -; read-out: M.I.C.
[11] = system: gram-positive and gram-negative bacteria including Pseudomonas aeruginosa; test: Antibacterial spectrum in vitro (summary in words); format: cell-based
[12] = system: Escherichia coli NIHJ JC-2; test: Preventive effect against ascending kidney infection in mice with Escherichia coli; format: in vivo, Escherichia coli; mice (ddY, female); settings: for effect against ascending kidney infection (in words): mice
Method: Ascending kidney infection was induced in female mice (strain: ddY, 6 weeks old, body weight: 22-26g), by instilling Escherlichia coli NIHJ JC-2 suspended in 0.04 ml of Tryptosoya broth (Nissan) into the urinary tract of mice anesthetized with sodium pentobarbital and by holding for 6 hours the mice in plastic tubes (diameter 25 mm) and clamping the outlet of urinary tract.
Each of these test material was orally administered 3 hours after inoculation. Mice were sacrificed 48 hours after inoculation. Kidneys were removed aseptically and bisected, and the two halves were pressed and streaked on agar plate containing Desoxycholate medium (Nissan). The therapeutic effect of each compound was evaluated from the absence of growth on the agar surface after 20 hours of incubation at 37° C.

[13] = Serum concentrations after a single oral administration of 50 mg/kg in rats; format: in vivo; settings: rat, 50 mg/kg oral
[14] = system: Escherichia coli NIHJ JC-2; test: Influence of serum on antibacterial activity; format: cell-based
Method: Nutrient agar was heated and melted. […] The diameter of the inhibition zone was measured.

[15] = Biliary excretion in rats after a single oral administration of 50 mg/kg; settings: rat, in vivo, po, 50 mg/kg
[16] = rat, in vivo, po, 50 mg/kg
Method: (§1) Nutrient agar was heated and melted. Escherichia coli NIHJ JC-2 was added to melted agar, and well mixed, and 5 ml of the mixture was placed in Petri dish. Penicylinders were placed on the solidified agar, and the cylinder was filled with serum sample. The plate was placed in the incubator of 37° C. for 20 hours. The diameter of the inhibition zone was measured.
(§2) The tissue homogenates were prepared with 1:4 homogenates in M/15 phosphate buffer (pH 7.5).

in vivo = settings: rat, po, 50 mg/kg
Method: as §1, §2

[17] = Concentrations in tissues after a single oral administration of 50 mg/kg in rats; settings: rat; for Tissue level, liver (free concentration): 50 mg/kg oral, mean ± S.E.
Method: as §1, §2

Which MIC [1] does the source give for `CCn1cc(C(=O)O)c(=O)c2cc(F)c(N3CCNCC3)cc21` [Compound (II), 1-ethyl-6-fluoro-1,4-dihydro-7-(1-piperazinyl)-4-oxoquinoline-3-carboxylicacid] here?
The MIC was 0.39 µg/mL (≈ 1.22 µM).

What about the MIC [2] of the same molecule?
The MIC was 0.78 µg/mL (≈ 2.44 µM).

And the MIC [3]?
The MIC was 3.13 µg/mL (≈ 9.8 µM).

And the MIC (Str. pyogenes S-8)?
Its MIC is 1.56 µg/mL (≈ 4.89 µM).

What about the MIC [4] of the same molecule?
The MIC was 12.5 µg/mL (≈ 39.1 µM).

What about the MIC [5] of the same molecule?
Its MIC is 3.13 µg/mL.

And the MIC [6]?
The MIC was 0.39 µg/mL (≈ 1.22 µM).

What about the MIC (My. smegmatis IFO 3083) of the same molecule?
The MIC was 1.56 µg/mL (≈ 4.89 µM).

What about the MIC (Escherichia coli NIHJ) of the same molecule?
Its MIC is 0.1 µg/mL (≈ 0.313 µM).

And the MIC (E. coli ATCC 10536)?
Its MIC is 0.05 µg/mL (≈ 0.157 µM).

And the MIC [7]?
The MIC was 0.05 µg/mL (≈ 0.157 µM).

And the MIC (Pr. vulgaris XK Denken)?
The MIC was 0.2 µg/mL (≈ 0.626 µM).

And the MIC [8]?
The MIC was 0.05 µg/mL (≈ 0.157 µM).

And the MIC [9]?
The MIC was 0.05 µg/mL (≈ 0.157 µM).

What about the MIC [10] of the same molecule?
Its MIC is 0.39 µg/mL (≈ 1.22 µM).

What about the MIC (Ps. aeruginosa IFO 12689) of the same molecule?
Its MIC is 1.56 µg/mL (≈ 4.89 µM).

What about the MIC (Ps. aeruginosa IID 1130) of the same molecule?
The MIC was 0.78 µg/mL (≈ 2.44 µM).

And the “antibacterial activity (in words)” value [11]?
The value was “more active than nalidixic acid and pipemidic acid against both of gram-positive and gram-negative bacteria; also recorded: more active than gentamicin and carbenicillin against gram-negative bacteria including Pseudomonas aeruginosa; also recorded: inhibited even such bacteria those were not susceptible to nalidixic acid, pipemidic acid and carbenicillin”.

And the ED50 ([12]; Escherichia coli, NIHJJC2, 48 h, oral, 3 hours after inoculation, challenge 3.2 × 10^7 cells/mouse, read-out: ED50 (95% confidence limit))?
Its ED50 is 15 mg/kg.

And the ED90 ([12]; Escherichia coli, NIHJJC2, 48 h, oral, 3 hours after inoculation, challenge 3.2 × 10^7 cells/mouse, read-out: ED90)?
The ED90 was 61 mg/kg.

And the “effect against ascending kidney infection (in words)” value [12]?
Its value is “more potent than nalidixic acid and pipemidic acid”.

What about the “effect against ascending kidney infection (in words)” value ([12]; listed as EXAMPLE 2) of the same molecule?
Its value is “effective against ascending kidney infection with Escherichia coli in mice”.

And the “absorption (in words)” value [13]?
Its value is “rapid”.

What about the concentration at 0.5 h ([13]; serum, 0.5 hours) of the same molecule?
The concentration at 0.5 h was 870 ± 110 ng/mL.

And the concentration at 1 h ([13]; serum, 1 hour)?
The concentration at 1 h was 770 ± 130 ng/mL.

And the concentration at 2 h ([13]; serum, 2 hours)?
The concentration at 2 h was 520 ± 100 ng/mL.

What about the concentration at 4 h ([13]; serum, 4 hours) of the same molecule?
The concentration at 4 h was 230 ± 20 ng/mL.

What about the concentration at 6 h ([13]; serum, 6 hours) of the same molecule?
Its concentration at 6 h is 110 ± 10 ng/mL.

What about the Tmax ([13]; serum, read-out: time of concentration peak in serum (converted)) of the same molecule?
Its Tmax is 30 min.

And the “antibacterial activity in presence of serum (in words)” value [14]?
The value was “not decreased by serum”.

What about the “biliary levels and cumulative excretion (in words)” value [15] of the same molecule?
The value was “more excellent than those of nalidixic acid and pipemidic acid”.

What about the concentration at 3 h [15] of the same molecule?
The concentration at 3 h was 31000 ± 3500 ng/mL.

And the concentration at 6 h [15]?
The concentration at 6 h was 26400 ± 3200 ng/mL.

And the concentration at 24 h [15]?
The concentration at 24 h was 18900 ± 1600 ng/mL.

What about the concentration at 27 h [15] of the same molecule?
The concentration at 27 h was 6700 ± 900 ng/mL.

And the dose excreted at 3 h [15]?
The dose excreted at 3 h was 0.6 ± 0.06%.

What about the dose excreted at 6 h [15] of the same molecule?
Its dose excreted at 6 h is 1.02 ± 0.11%.

What about the dose excreted at 24 h [15] of the same molecule?
Its dose excreted at 24 h is 2.43 ± 0.23%.

And the dose excreted at 27 h [15]?
The dose excreted at 27 h was 2.5 ± 0.23%.

What about the “Tissue level, kidney (free concentration)” value ([16]; 30 min) of the same molecule?
The value was 7.4 ± 1.4 µg/g.

And the “Tissue level, kidney (free concentration)” value ([16]; 60 min)?
Its value is 6.8 ± 1.2 µg/g.

What about the “Tissue level, kidney (free concentration)” value ([16]; 120 min) of the same molecule?
Its value is 4.4 ± 0.6 µg/g.

And the “Tissue level, kidney (free concentration)” value ([16]; 240 min)?
The value was 1.9 ± 0.2 µg/g.

And the “Tissue level, kidney (free concentration)” value ([16]; 360 min)?
The value was 1.0 ± 0.1 µg/g.

What about the concentration at 0.5 h (in vivo) of the same molecule?
The concentration at 0.5 h was 11100 ± 2100 ng/g.

And the concentration at 1 h (in vivo)?
Its concentration at 1 h is 10300 ± 2000 ng/g.

And the concentration at 2 h (in vivo)?
The concentration at 2 h was 6500 ± 900 ng/g.

What about the concentration at 4 h (in vivo) of the same molecule?
The concentration at 4 h was 3500 ± 900 ng/g.

What about the concentration at 6 h (in vivo) of the same molecule?
The concentration at 6 h was 1400 ± 100 ng/g.

And the “Tissue level, liver (free concentration)” value ([17]; 0.5 hrs.)?
Its value is 4.1 ± 0.9 µg/g.

And the “Tissue level, liver (free concentration)” value ([17]; 1 hr.)?
Its value is 3.7 ± 0.6 µg/g.

What about the “Tissue level, liver (free concentration)” value ([17]; 2 hrs.) of the same molecule?
Its value is 2.5 ± 0.5 µg/g.

And the “Tissue level, liver (free concentration)” value ([17]; 4 hrs.)?
Its value is 1.2 ± 0.2 µg/g.

And the “Tissue level, liver (free concentration)” value ([17]; 6 hrs.)?
The value was 0.7 ± 0.1 µg/g.

What about the concentration at 0.5 h ([17]; liver, po, 50 mg/kg) of the same molecule?
The concentration at 0.5 h was 9000 ± 1900 ng/g.

And the concentration at 1 h ([17]; liver, po, 50 mg/kg)?
The concentration at 1 h was 7900 ± 1200 ng/g.

And the concentration at 2 h ([17]; liver, po, 50 mg/kg)?
Its concentration at 2 h is 5400 ± 1000 ng/g.

And the concentration at 4 h ([17]; liver, po, 50 mg/kg)?
The concentration at 4 h was 2600 ± 400 ng/g.

And the concentration at 6 h ([17]; liver, po, 50 mg/kg)?
Its concentration at 6 h is 1500 ± 200 ng/g.
